How the values were obtained:
Hsp90 = Hsp90 inhibition; format: biochemical; conditions: read-out: Hsp90 inhibition (IC50); in vitro; preliminary evaluation
[1] = in vivo settings; earlier work of the authors, no reference given; cited from earlier work
[2] = test system: Rb (retinoblastoma)-negative cells; conditions: cells resistant to 17-AAG; ref x; cited from earlier work
[3] = ref ix; cited from earlier work
[4] = test system: human colon carcinoma (HCT-116); experiment: In vivo study in mice implanted with human colon carcinoma; conditions: mice implanted with HCT-116; 75 mg/kg, QDx7; preliminary
[5] = test system: MCF-7 breast cancer cells; conditions: read-out: inhibitory activity against MCF-7 breast cancer cells (IC50); ref xiii; cited from earlier work

Row | IC50 (Hsp90) [nM] | Structure (SMILES) | in vivo activity [1] | cytotoxicity against Rb-negative cells [2] | hepatotoxicity compared with 17-AAG [3] | tumor cell growth suppression [4] [%] | IC50 [5] [nM]
2 | – | C[C@@H]1C[C@H]2O[C@@H]2/C=C\C=C\C(=O)Cc2c(Cl)c(O)cc(O)c2C(=O)O1 [Radicicol (1), radicicol] | inactive | potent cytotoxicity | significantly less hepatotoxic than 17-AAG (3) | – | –
3 | 160 | C[C@@H]1C[C@H]2C[C@@H]2/C=C\C=C\C(=O)Cc2c(Cl)c(O)cc(O)c2C(=O)O1 [cycloproparadicicol (4), cycloproparadicicol] | – | – | – | 68 | 49

— paper PMC3062907 (Advanced synthesis & catalysis, 2008)
